Reference: patent US12251373B2, “Compounds and methods of treating retinal degeneration” (CASE WESTERN RESERVE UNIVERSITY, priority 2017, dated 2025)

Legend:
[1] = Quantification of YC-001 in mouse eye by HPLC; format: in vivo
Description: To measure the amount of YC-001 in the eye following systemic delivery, YC-001 was administered to C57BL6 mice by i.p. injection at a dose of 200 mg kg^−1 bw. Mice then were euthanized at 30 min, 3 h and 24 h after these injections, and their eyes were removed for analysis. Eyes from two mice under the same treatment were homogenized on ice in 1 mL of PBS:methanol (1:1 ratio). Four-mL of hexanes were then added to the homogenized sample, and the mixture was vortexed for 15 s. The mixture was centrifuged at 3,220 g for 15 min at 4° C. to separate the hexanes from the aqueous layer. From the top hexane layer, 3.5 mL was transferred to a glass vial. This sample was then dried in a Savant speed vacuum concentrator (Thermofisher, Waltham, Massachusetts, USA) and dissolved in 300 μL methanol. One hundred-μL of dissolved sample were injected into an HPLC system connected to an Agilent Sil column (5 μm, 4.6×250 mm; Agilent Technologies, Santa Clara, CA) for separation with 10% ethyl acetate in hexanes at a flow rate 1.4 mL min^−1. A chromatogram of absorption at 340 nm was then obtained. A YC-001 standard was subjected to the same procedures as the ocular samples and used to establish a retention time at 13.2 min. By comparing ocular samples to its standard curve of YC-001, the amount of YC-001 was then quantified in pmol eye^−1 at different time points after its systemic administration. The identity of YC-001 in the peak fraction with a retention time of 13.2 min was confirmed by LC-MS using the same chromatography method as applied for HPLC.

C57BL/6 mice = assay: Bw measurements, long-term toxicity by daily i.p. injections; format: in vivo; settings: 100 or 200 mg kg−1 bw daily i.p. Day 14 to 38, vs DMSO
Description: To estimate the long-term toxicity of YC-001 in mice, we administered YC-001 to C57BL/6 mice by daily i.p. injections from Day 14 to 38 after birth with one of two doses, either 100 mg kg^−1 or 200 mg kg^−1 bw. Equivalent volumes of DMSO were injected into control groups. Bws of treated mice were measured daily. Each dosage group contained 3 mice including males and females.

[2] = Pharmacokinetics of YC-001 in mouse plasma; format: in vivo
Description: C57BL/6J mice ranging from 8 to 12 weeks of age were purchased from Jackson Labs. For administration, YC-001 was dissolved in DMSO at 160 mg mL^−1. To obtain the blood clearance curve for YC-001, each animal was treated by intraperitoneal injection of YC-001 at 200 mg kg^−1 bw. After administration, blood was collected at 5, 10, 15, 20, 30, 45, 60 and 90 min from the orbital sinus and dropped into K2EDTA blood collection tubes (FisherScientific). Mice were anesthetized with a ketamine/xylazine cocktail two min before blood collection. The blood samples were then incubated at 4° C. for 2 h before centrifugation at 1,800×g for 20 min to collect the supernatant that was the plasma. Plasma was mixed with twice the volume of methanol and then stored at −80° C. YC-001 was extracted from the samples (300 to 600 μL) with 0.6 mL chloroform. The chloroform fraction was collected, dried, and the extracted organic compounds were dissolved in 0.25 mL of methanol. One hundred-μL of each sample was injected onto an Eclipse XDB-C18 column (4.6×150 mm, 5 μm) and YC-001 was detected and quantified as described in the section Metabolic stability of YC-001.

[3] = Metabolic stability in human liver microsomes; format: in vitro ADME; settings: 5 μM, with NADPH, vs verapamil
Description: A standard metabolic stability assay was performed in the presence of mouse or human liver microsomes. YC-001 (5 μM) was incubated with the microsomes (0.125 mg mL^−1) resuspended in 0.2 mL of PBS buffer, pH 7.4 composed of 10 mM Na2HPO4, 1.8 mM KH2PO4, 137 mM NaCl, and 2.7 mM KCl. The enzymatic reaction to produce oxidized metabolites was initiated by addition of NADPH (1 mM). Samples were incubated at 37° C. for up to 240 min. Incubation without the cofactor was conducted in parallel to assess NADPH-independent clearance. The reactions were stopped with 0.2 mL of methanol followed by 0.3 mL chloroform. Residual YC-001 was extracted by vigorous shaking. To facilitate phase separation, the samples were spun down for 2 min, 15,000×g. The chloroform fraction was collected, dried down, and the extracted organic compounds were redissolved in 0.2 mL of methanol. To quantify YC-001, the samples were injected onto an Eclipse XDB-C18 column (4.6×150 mm, 5 μm) (Agilent Technologies) equilibrated with solvent composed of 30% acetonitrile in water (v/v), and 0.1% formic acid. YC-001 was eluted in a gradient of acetonitrile in water (30-100%) developed within 15 min at a flow rate of 1 mL min^−1, detected at 350 nm, and quantified by correlating peak areas with known quantities of an original synthetic standard. […]

O=C1OCC(c2ccc(Cl)s2)=C1c1cccs1 [YC-001]
amount of YC-001 per eye ([1]; 0.5 h after i.p. injection at 200 mg kg−1 bw): About 70 pmol per eye | amount of YC-001 per eye ([1]; 3 h after i.p. injection at 200 mg kg−1 bw): 280 pmol per eye | amount of YC-001 per eye ([1]; 24 h after i.p. injection at 200 mg kg−1 bw): undetectable | behavioral or bw growth changes (C57BL/6 mice): no obvious behavioral or bw growth changes | elimination rate constant (Ke) ([2]; 0.693/T1/2): 0.0201 min⁻¹ | volume of distribution (Vd) ([2]; Dose/C0): 27.5 L kg−1 bw | Clearance ([2]; Ke×Vd): 0.552 L min−1 kg−1 bw | initial clearance in liver microsomes [3]: even higher initial clearance
